[s4U] = 4-thiouridine base; m = 2'-O-methyl; r = 2'-OH (RNA)
Tests used:
HCT-8 cells [1] = test: Clonogenic assay on HCT-8 cells; assay type: cell-based, human; conditions: 50 nM; for colony number, inhibition of proliferation (FIG. 8A): vs control group
Description: (§1) HCT-8, fluorouracil-resistant HCT-8, fluorouracil-resistant LoVo cell lines were cultured in RPMI Medium 1640 medium containing 10% FBS and 1% penicillin/streptomycin. LoVo cell line was cultured in F-12K medium containing 10% FBS and 1% penicillin/streptomycin. All cell lines above were cultured at humidified atmosphere containing 5% CO2 at 37° C.
(§2) In the clonogenic assay, HCT-8 or LoVo cells were plated in 6-well microplate at a density of 1000 cells per well in 2 mL of culture medium and allowed to adhere for 24 h before treatment. Single concentration of RNA molecules obtained in Example 1 to 4 in a mixture containing a gene delivery carrier, i.e. Lipofectamine™ RNAiMAX Transfection Reagent (Thermo Fisher Scientific, U.S.A.) were then added to the cells. After treated for 48 h, discarded the drug solutions and replaced with 2 mL of fresh culture medium. After culture 14 days, discarded the culture medium and the cells were fixated with 4% paraformaldehyde fix solution for 20 min, followed by stained with crystal violet for 10 min and then washed by deionized water. The 6-well microplate was photographed and the number of colonies with more than 50 individual cells were counted using ImageJ software (U.S.A.). Each experiment was carried out for three times. Results were expressed as means±standard deviation.

LoVo cells [2] = test: Clonogenic assay on LoVo cells; assay type: cell-based; conditions: 25 nM; for colony number, inhibition of proliferation (FIG. 8B): vs control group
Description: as §1, §2

HCT-8 cells [3] = test: Wound-healing assay on HCT-8 cells; assay type: cell-based, human; conditions: 50 nM; for wound area, inhibition of migration (FIG. 9A): vs control group
Description: as §1
as §2, with “wound-healing” for “clonogenic”, “500,000” for “1000”, “[…]” for “Single concentration”, “[…] A 1 mL bacteria-free pipette tip was used to make a cross-scratch at the bottom of 6-well microplate. The cells in the scratch were washed away using phosphor buffer solution and the 6-well microplate was photographed under a microscope. Single concentration of RNA molecules obtained in Example 1 to 4 in a mixture containing a gene delivery carrier, i.e. Lipofectamine™ RNAiMAX Transfection Reagent (Thermo Fisher Scientific, U.S.A.) were then added to the cells. The cells were then photographed under microscope at 24 and 48 h. ImageJ software was applied to quantify the area of wound created. Each experiment was carried out for three times. Results were expressed as means±standard deviation.” for “deviation.”

[4] = tested on: LoVo/5-FU (5-FU-resistant strain of LoVo); test: MTT cytotoxicity assay on LoVo/5-FU cells; assay type: cell-based; conditions: for effect on growth and proliferation (FIGS. 7A, 7B): 6.25-100 nM; for IC50: MTT, 48 h treatment
Description: as §1
(§3) In the cytotoxicity assay, exponentially growing cells of each cancer cell line were plated in 96-well microplate at a density of 5000 cells per well in 100 μL of culture medium and allowed to adhere for 24 h before treatment. Serial concentrations of RNA molecules obtained in Example 1 to 4 in a mixture containing a gene delivery carrier, i.e. Lipofectamine™ RNAiMAX Transfection Reagent (Thermo Fisher Scientific, U.S.A.) were then added to the cells. After treated for 48 h, MTT solution (50 μL per well, 1 mg/mL solution) was added to each well and incubated for 4 h at 37° C. Subsequently, 200 μL dimethyl sulfoxide (DMSO) were added and the optical densities of the resulting solutions were calorimetrically determined at 570 nm using a SpectraMax 190 microplate reader (Molecular Devices, Sunnyvale, CA, U.S.A). Dose-response curves were obtained, and the IC50 values were calculated by GraphPad Prism 5 (GraphPad, La Jolla, CA, USA). Each experiment was carried out for three times. IC50 results were expressed as means±standard deviation.

[5] = tested on: LoVo colorectal adenocarcinoma cell line; test: MTT cytotoxicity assay on LoVo cells; assay type: cell-based; conditions: for effect on growth and proliferation (FIGS. 7A, 7B): 6.25-100 nM; for IC50: MTT, 48 h treatment
Description: as §1, §3

[6] = tested on: HCT-8/5-FU (5-FU-resistant strain of HCT-8); test: MTT cytotoxicity assay on HCT-8/5-FU cells; assay type: cell-based, human; conditions: for effect on growth and proliferation (FIGS. 7A, 7B): 6.25-100 nM; for IC50: MTT, 48 h treatment
Description: as §1, §3

LoVo cells [7] = test: Wound-healing assay on LoVo cells; assay type: cell-based; conditions: 25 nM; for wound area, inhibition of migration (FIG. 9B): vs control group
Description: as §1
as §2, with “wound-healing” for “clonogenic”, “500,000” for “1000”, “[…]” for “Single concentration”, “[…] A 1 mL bacteria-free pipette tip was used to make a cross-scratch at the bottom of 6-well microplate. The cells in the scratch were washed away using phosphor buffer solution and the 6-well microplate was photographed under a microscope. Single concentration of RNA molecules obtained in Example 1 to 4 in a mixture containing a gene delivery carrier, i.e. Lipofectamine™ RNAiMAX Transfection Reagent (Thermo Fisher Scientific, U.S.A.) were then added to the cells. The cells were then photographed under microscope at 24 and 48 h. ImageJ software was applied to quantify the area of wound created. Each experiment was carried out for three times. Results were expressed as means±standard deviation.” for “deviation.”

[8] = tested on: HCT-8 human ileocecal colorectal adenocarcinoma cell line; test: MTT cytotoxicity assay on HCT-8 cells; assay type: cell-based; conditions: for effect on growth and proliferation (FIGS. 7A, 7B) / IC50: HCT-8; for effect on growth and proliferation (FIGS. 7A, 7B): 6.25-100 nM; for IC50: MTT, 48 h treatment
Description: as §1, §3

[9] = among EC83 mimic and modified mimics

Substance | colony number, inhibition of proliferation (FIG. 8A) (HCT-8 cells [1]) | colony number, inhibition of proliferation (FIG. 8B) (LoVo cells [2]) | wound area, inhibition of migration (FIG. 9A) (HCT-8 cells [3]) | effect on growth and proliferation (FIGS. 7A, 7B) [4] | IC50 [4] | effect on growth and proliferation (FIGS. 7A, 7B) [5] | IC50 [5] | effect on growth and proliferation (FIGS. 7A, 7B) [6] | IC50 [6] | wound area, inhibition of migration (FIG. 9B) (LoVo cells [7]) | effect on growth and proliferation (FIGS. 7A, 7B) [8] | IC50 [8] | cytotoxicity ranking on HCT-8 cells (FIG. 6C) ([8]; among synthetic RNA molecules of Example 4) | anti-proliferation activity ranking (FIG. 8A) (HCT-8 cells [1]; [9]) | anti-proliferation activity ranking (FIG. 8B) (LoVo cells [2]; [9]) | wound healing inhibition ranking (FIG. 9A) (HCT-8 cells [3]; [9]) | wound healing inhibition ranking (FIG. 9B) (LoVo cells [7]; [9])
EC83 mimic: 22 bp dsRNA; antisense SEQ ID NO: 89 GCCGAAGUGGCGAAAUCGGUAG, sense SEQ ID NO: 183 CUACCGAUUUCGCCACUUCGGC; 5′-t of tRNA-Leu(CAA) (RNA, backbone not given here; tRNA-derived fragment mimic duplex) [22 bp dsRNA; 5′-t of tRNA-Leu(CAA)] | significantly inhibit the proliferation | significantly inhibit the proliferation | significantly inhibit the migration | dose-dependent effect on inhibiting the growth and proliferation | 29.5 nM | dose-dependent effect on inhibiting the growth and proliferation | 28.8 nM | dose-dependent effect on inhibiting the growth and proliferation | 63.4 nM | significantly inhibit the migration | dose-dependent effect on inhibiting the growth and proliferation | 70.6 nM | strongest cytotoxicity | – | – | – | –
EC83-M1 mimic: modified EC83 dsRNA; antisense SEQ ID NO: 1 GCCGAAG[s^4U]GGCGAAAUCGGUAG, sense SEQ ID NO: 4 CUACCGAUUUCGCCACUUCGGC (antisense GCCGAAGUGGCGAAAUCGGUAG; antisense: RNA, [s4U] at 8, backbone not given here; sense: RNA, backbone not given here; tRNA-derived fragment mimic duplex) | significantly inhibit the proliferation | significantly inhibit the proliferation | significantly inhibit the migration | dose-dependent effect on inhibiting the growth and proliferation | 54.2 nM | dose-dependent effect on inhibiting the growth and proliferation | 43.6 nM | dose-dependent effect on inhibiting the growth and proliferation | 69.6 nM | significantly inhibit the migration | dose-dependent effect on inhibiting the growth and proliferation | 77.9 nM | – | – | – | – | –
EC83-M2 mimic: modified EC83 dsRNA; antisense SEQ ID NO: 2 GCCGAAGUGGCGAAAUC[Gm]GUAG, sense SEQ ID NO: 5 CUACCGAUUUCGCCACUUCGGC (antisense GCCGAAGUGGCGAAAUCGGUAG; antisense: sugars from the 5' end r17 m1 r4, backbone not given here; sense: RNA, backbone not given here; tRNA-derived fragment mimic duplex) | significantly inhibit the proliferation | significantly inhibit the proliferation | significantly inhibit the migration | dose-dependent effect on inhibiting the growth and proliferation | 18.3 nM | dose-dependent effect on inhibiting the growth and proliferation | 19.9 nM | dose-dependent effect on inhibiting the growth and proliferation | 48.8 nM | significantly inhibit the migration | dose-dependent effect on inhibiting the growth and proliferation | 58.9 nM | – | strongest anti-proliferation activity | strongest anti-proliferation activity | strongest inhibition effect on the wound healing | strongest inhibition effect on the wound healing
EC83-M3 mimic: modified EC83 dsRNA; antisense SEQ ID NO: 3 GCCGAAG[s^4U]GGCGAAAUC[Gm]GUAG, sense SEQ ID NO: 6 CUACCGAUUUCGCCACUUCGGC (antisense GCCGAAGUGGCGAAAUCGGUAG; antisense: sugars from the 5' end r17 m1 r4, [s4U] at 8, backbone not given here; sense: RNA, backbone not given here; tRNA-derived fragment mimic duplex) | significantly inhibit the proliferation | significantly inhibit the proliferation | significantly inhibit the migration | dose-dependent effect on inhibiting the growth and proliferation | 23 nM | dose-dependent effect on inhibiting the growth and proliferation | 24.1 nM | dose-dependent effect on inhibiting the growth and proliferation | 72.2 nM | significantly inhibit the migration | dose-dependent effect on inhibiting the growth and proliferation | 74.5 nM | – | – | – | – | –

Reference: US11866704B2, “Nucleic acid molecules and uses thereof” (Macau University of Science and Technology, priority 2020, dated 2024)
